Measured values reported in patent US7183260B2, “C-terminal modified oxamyl dipeptides as inhibitors of the ICE/ced-3 family of cysteine proteases” (Idun Pharmaceuticals, Inc., priority 1998, dated 2007).
Where a SMILES comes first, the peptide text is derived from it. The star is where a group is joined. Cbz = O=C(OCc1ccccc1)*

Columns and labels:
Type in all cases: biochemical
[1] = biological target: T1, MCH-3 (Homo sapiens, UniProt P55210); assay: Fluorescence enzyme assay, determination of IC50 values (Mch3); settings: 30 min preincubation, substrate Acetyl-Asp-Glu-Val-Asp-AMC, room temperature
T1 sequence (P55210 24-198 limits assumed): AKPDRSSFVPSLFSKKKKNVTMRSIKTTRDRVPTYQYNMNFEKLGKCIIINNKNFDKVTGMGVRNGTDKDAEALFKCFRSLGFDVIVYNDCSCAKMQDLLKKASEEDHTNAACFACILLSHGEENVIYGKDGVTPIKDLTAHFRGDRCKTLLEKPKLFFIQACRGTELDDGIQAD
T1 sequence (P55210 207-303 limits assumed): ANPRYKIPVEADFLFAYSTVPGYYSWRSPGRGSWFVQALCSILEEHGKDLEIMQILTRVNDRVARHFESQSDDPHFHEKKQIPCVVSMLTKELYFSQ
Description: (§1) Fluorescence enzyme assays detecting the activity of the compounds of Formula I utilizing the recombinant ICE and CPP32 enzymes are performed essentially according to Thornberry et al. (Nature, 356:768:774 (1992)) and Nicholson et al. (Nature, 376:37–43 (1995)) respectively, (herein incorporated by reference) in 96 well microtiter plates. The substrate is Acetyl-Tyr-Val-Ala-Asp-amino-4-methylcoumarin (AMC) for the ICE assay and Acetyl-Asp-Glu-Val-Asp-amino-4-methylcoumarin for the CPP32, Mch2, Mch3 and Mch5 assays. Enzyme reactions are run in ICE buffer (25 mM HEPES, 1 mM EDTA, 0.1% CHAPS, 10% sucrose, pH 7.5) containing 2 mM DTT at room temperature in duplicate.
(§2) The enzyme and the compound of Formula I to be assayed are allowed to preincubate in the microtitre plate wells for 30 minutes at room temperature prior to the addition of substrate to initiate the reaction. Fluorescent AMC product formation is monitored for one hour at room temperature by measuring the fluorescence emission at 460 nm using an excitation wavelength of 360 nm.
(§3) The reference compound for this assay was Cbz-ValAlaAsp-H and the values are denoted in Table 1 as “Reference”.

[2] = biological target: T2, MCH-2 (Homo sapiens, UniProt P55212); assay: Fluorescence enzyme assay, determination of IC50 values (Mch2); settings: 30 min preincubation, substrate Acetyl-Asp-Glu-Val-Asp-AMC, room temperature
T2 sequence (P55212 24-179 limits assumed): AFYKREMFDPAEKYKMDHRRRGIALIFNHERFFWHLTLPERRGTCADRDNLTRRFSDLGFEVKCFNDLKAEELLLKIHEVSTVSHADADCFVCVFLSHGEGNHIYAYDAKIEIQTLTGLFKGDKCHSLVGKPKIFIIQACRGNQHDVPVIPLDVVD
T2 sequence (P55212 194-293 limits assumed): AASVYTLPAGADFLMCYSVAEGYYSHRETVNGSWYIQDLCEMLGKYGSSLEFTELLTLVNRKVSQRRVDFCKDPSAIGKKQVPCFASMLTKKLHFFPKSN
Description: as §1, §2, §3

[3] = biological target: T3, mICE (Mus musculus, UniProt P29452); assay: Fluorescence enzyme assay, determination of IC50 values (ICE); settings: recombinant enzyme, 30 min preincubation, substrate Acetyl-Tyr-Val-Ala-Asp-AMC, room temperature
T3 sequence (P29452 123-296 limits assumed): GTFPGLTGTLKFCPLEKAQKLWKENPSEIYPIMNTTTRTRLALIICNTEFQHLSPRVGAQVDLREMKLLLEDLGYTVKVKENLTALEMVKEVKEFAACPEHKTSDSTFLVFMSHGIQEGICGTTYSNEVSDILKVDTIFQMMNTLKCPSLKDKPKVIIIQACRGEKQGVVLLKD
T3 sequence (P29452 315-402 limits assumed): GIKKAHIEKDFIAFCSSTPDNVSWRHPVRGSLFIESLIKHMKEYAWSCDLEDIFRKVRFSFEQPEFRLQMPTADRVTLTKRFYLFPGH
Description: as §1, §2, §3

[4] = biological target: T4, CPP32 (Homo sapiens, UniProt P42574); assay: Fluorescence enzyme assay, determination of IC50 values (CPP32); settings: recombinant enzyme, 30 min preincubation, substrate Acetyl-Asp-Glu-Val-Asp-AMC, room temperature
T4 sequence (P42574 29-175 limits assumed): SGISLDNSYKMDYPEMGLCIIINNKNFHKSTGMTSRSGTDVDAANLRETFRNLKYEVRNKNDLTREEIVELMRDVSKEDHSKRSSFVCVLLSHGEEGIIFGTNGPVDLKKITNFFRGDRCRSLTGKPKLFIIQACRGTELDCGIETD
T4 sequence (P42574 176-277 limits assumed): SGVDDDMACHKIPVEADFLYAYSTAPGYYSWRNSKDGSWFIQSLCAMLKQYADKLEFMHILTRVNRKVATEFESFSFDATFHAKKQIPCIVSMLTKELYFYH
Description: as §1, §2, §3

[5] = biological target: T5, MCH-5 (Homo sapiens, UniProt Q14790); assay: Fluorescence enzyme assay, determination of IC50 values (Mch5); settings: 30 min preincubation, substrate Acetyl-Asp-Glu-Val-Asp-AMC, room temperature
Description: The substrate is Acetyl-Tyr-Val-Ala-Asp-amino-4-methylcoumarin (AMC) for the ICE assay and Acetyl-Asp-Glu-Val-Asp-amino-4-methylcoumarin for the CPP32, Mch2, Mch3 and Mch5 assays. Enzyme reactions are run in ICE buffer (25 mM HEPES, 1 mM EDTA, 0.1% CHAPS, 10% sucrose, pH 7.5) containing 2 mM DTT at room temperature in duplicate.
as §2, §3

[6] = biological target: T5, MCH-5; assay: Dissociation constant Ki and irreversible rate constant k3 for irreversible inhibitors (Mch5); settings: continuous assay 60 min, reaction initiated by adding enzyme to substrate-inhibitor mixture
[7] = biological target: T3, mICE; assay: Dissociation constant Ki and irreversible rate constant k3 for irreversible inhibitors (ICE); settings: continuous assay 60 min, reaction initiated by adding enzyme to substrate-inhibitor mixture
[8] = biological target: T4, CPP32; assay: Dissociation constant Ki and irreversible rate constant k3 for irreversible inhibitors (CPP32); settings: continuous assay 60 min, reaction initiated by adding enzyme to substrate-inhibitor mixture
[9] = biological target: T2, MCH-2; assay: Dissociation constant Ki and irreversible rate constant k3 for irreversible inhibitors (Mch2); settings: continuous assay 60 min, reaction initiated by adding enzyme to substrate-inhibitor mixture

T5 sequence (Q14790 217-374 limits assumed, species assumed): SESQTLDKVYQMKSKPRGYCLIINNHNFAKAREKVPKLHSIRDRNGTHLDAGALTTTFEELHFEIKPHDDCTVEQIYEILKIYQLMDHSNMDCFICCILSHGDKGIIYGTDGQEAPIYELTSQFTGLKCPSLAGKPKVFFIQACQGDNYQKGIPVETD
T5 sequence (Q14790 385-479 limits assumed, species assumed): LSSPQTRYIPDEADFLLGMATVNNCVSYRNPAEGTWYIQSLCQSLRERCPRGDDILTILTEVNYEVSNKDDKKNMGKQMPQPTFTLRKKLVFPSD

Compound | IC50 [1] | IC50 [2] | IC50 [3] | IC50 [4] | IC50 [5] | Ki [6] | MCH-5 k3/Ki [6] | Ki [7] | mICE k3/Ki [7] | CPP32 k3/Ki [8] | Ki [8] | Ki [9] | MCH-2 k3/Ki [9]
CC(C)[C@H](NC(=O)OCc1ccccc1)C(=O)N[C@@H](C)C(=O)N[C@H](C=O)CC(=O)O [reference, Cbz-ValAlaAsp-H, reference compound] (Cbz-Val-Ala-Asp-aldehyde) | > 10000 nM | > 10000 nM | 64 nM | 47000 nM | 2960 nM | – | – | – | – | – | – | – | –
C[C@H](NC(=O)C(=O)Nc1cc(C(C)(C)C)ccc1C(C)(C)C)C(=O)N[C@@H](CC(=O)O)C(=O)COC(=O)c1c(Cl)cccc1Cl [Example 60] | – | – | – | – | – | 14 nM | 306,000 moles^−1 seconds^−1 | 26 nM | 289,000 moles^−1 seconds^−1 | 189,000 moles^−1 seconds^−1 | 58 nM | 49 nM | 146,000 moles^−1 seconds^−1
C[C@H](NC(=O)C(=O)Nc1ccccc1Cl)C(=O)N[C@@H](CC(=O)O)C(=O)COC(=O)c1c(Cl)cccc1Cl [Example 58] | – | – | – | – | – | 7.1 nM | 396,000 moles^−1 seconds^−1 | 54 nM | 278,000 moles^−1 seconds^−1 | 323,000 moles^−1 seconds^−1 | 43 nM | 18 nM | 281,000 moles^−1 seconds^−1
CC(C)[C@H](NC(=O)C(=O)Nc1cccc2ccccc12)C(=O)N[C@@H](CC(=O)O)C(=O)COC(=O)c1c(Cl)cccc1Cl [Example 4] | – | – | – | – | – | 4 nM | – | 6.1 nM | – | – | 14 nM | 9 nM | –
C[C@H](NC(=O)C(=O)Nc1cccc2c1CCCC2)C(=O)N[C@@H](CC(=O)O)C(=O)COC(=O)c1c(Cl)cccc1Cl [Example 62] | – | – | – | – | – | 90 nM | 21,200 moles^−1 seconds^−1 | 1020 nM | 16,900 moles^−1 seconds^−1 | 149,000 moles^−1 seconds^−1 | 101 nM | 23 nM | 126,000 moles^−1 seconds^−1
CC(C)C[C@H](NC(=O)C(=O)Nc1cccc2ccccc12)C(=O)N[C@H](C=O)CC(=O)O [Example 1, (3S)-3-[N-(N′-(1-NAPHTHYL)OXAMYL)LEUCINYL]AMINO-4-OXOBUTANOIC ACID] | 267 nM | 1500 nM | 27 nM | 10 nM | 179 nM | – | – | – | – | – | – | – | –
CC(C)[C@H](NC(=O)C(=O)Nc1cccc2ccccc12)C(=O)N[C@@H](CC(=O)O)C(=O)COc1c(F)cccc1F [Example 5] | – | – | – | – | – | 5 nM | – | 7.4 nM | – | – | 41 nM | 25 nM | –
CC(C)[C@H](NC(=O)C(=O)Nc1ccccn1)C(=O)N[C@@H](CC(=O)O)C(=O)COc1c(F)c(F)cc(F)c1F [Example 100] | – | – | – | – | – | 157 nM | 19,500 moles^−1 seconds^−1 | 206 nM | 36,000 moles^−1 seconds^−1 | 9,850 moles^−1 seconds^−1 | 2250 nM | 188 nM | 11,600 moles^−1 seconds^−1
CC(C)[C@H](NC(=O)C(=O)Nc1cccc2ccccc12)C(=O)N[C@@H](CC(=O)O)C(=O)COP(=O)(c1ccccc1)c1ccccc1 [Example 11] | – | – | – | – | – | 1.3 nM | – | 5 nM | – | – | 25 nM | 11 nM | –
CCCCCCCc1ccc(NC(=O)C(=O)N[C@H](C(=O)N[C@@H](CC(=O)O)C(=O)COc2c(F)c(F)cc(F)c2F)C(C)C)cc1 [Example 94] | – | – | – | – | – | 12 nM | 155,000 moles^−1 seconds^−1 | 24 nM | 657,000 moles^−1 seconds^−1 | 11,200 moles^−1 seconds^−1 | 1110 nM | 59 nM | 50,000 moles^−1 seconds^−1
CC(C)[C@H](NC(=O)C(=O)Nc1cccc2ccccc12)C(=O)N[C@@H](CC(=O)O)C(=O)COc1ccc(O)cc1 [Example 15] | – | – | – | – | – | 5.7 nM | 625,000 moles^−1 seconds^−1 | 6.1 nM | 1,840,000 moles^−1 seconds^−1 | 286,000 moles^−1 seconds^−1 | 42 nM | 37 nM | 69,100 moles^−1 seconds^−1
CC(C)[C@H](NC(=O)C(=O)NC1CCCc2ccccc21)C(=O)N[C@@H](CC(=O)O)C(=O)COc1c(F)c(F)cc(F)c1F (stereo partly drawn) [Example 104] | – | – | – | – | – | 5.2 nM | 456,000 moles^−1 seconds^−1 | 4.5 nM | 2,320,000 moles^−1 seconds^−1 | 98,600 moles^−1 seconds^−1 | 84 nM | 13 nM | 160,000 moles^−1 seconds^−1
